# Data reported in patent US10155971B2, “Rapid antibiotic susceptibility testing system based on bacterial immobilization using gelling agent, antibiotic diffusion and tracking of single bacterial cells” (SNU R & DB FOUNDATION, priority 2012, dated 2018).
# What was measured:
# S. aureus ATCC 29213 = conditions: CLSI range; cited from earlier work
# [1] = system: Pseudomonas aeruginosa ATCC 27853; assay: Rapid antibiotic susceptibility test (RAST) in microfluidic agarose channel (MAC), MIC by single-cell time-lapse imaging; type: cell-based; conditions: P. aeruginosa ATCC 27853, RAST method in MAC; for MIC: Pseudomonas aeruginosa, ATCC27853
# Method: (§1) Radial microfluidic channels with six branches were formed using soft-lithography. First, SU8 mold (2015 SU8, Microchem) was fabricated by employing photolithography. Polydimethylsiloxane (PDMS, Dow Corning) was mixed with a curing agent (10:1, w/w) and poured into the SU8. After baking at 150° C. for 10 min, the PDMS was peeled off and attached to the PDMS-coated slide glass by O2 plasma treatment to obtain a radial microfluidic channel chip capable of testing antibiotics having five concentrations and a control with no antibiotic. There were six main channels that carried one side-branched channel each. […] A mixture of agarose and bacteria was allowed to flow in the main channels, and the bioactive agents were allowed to flow in the respective side-branched channels. In the middle of each main channel, there were anchors in the form of micro-sized posts for forming an interface between the agarose and each of the bioactive agents. The posts blocked the agarose from flowing into the side-branched channel. The sizes of the posts and the pitches between the posts were determined by mathematical calculations. For appropriate hydrophobicity to occur in the channel, the channel was prepared one day before experiment to increase the surface tension after O2 plasma treatment. Agarose is solidified at a temperature lower than 36° C. The cultured bacteria were mixed with 2% agarose (1:3, v/v) at 45° C. and immediately injected into the microfluidic channels. The agarose-bacteria mixture was solidified at 25° C. for 1 min. The obtained microfluidic agarose channel (MAC) chip was placed on a hot plate and incubated at 37° C. To provide nutrients, liquid CAMHB medium was supplied through the side-branched channels. The growth of the bacteria was monitored using a microscope. Bacterial growth was not inhibited and could be clearly monitored in the MAC system. Bacterial cell images were taken with a CCD camera; the images were then processed to determine the MIC values of the antibiotics. The image data were transformed into digital data using an image processing program, which is coded in Matlab. For the calculations, RGB images were transformed into grey formatted images. The background data were eliminated to obtain sharp data without noise. Then, the contrast was enhanced to change the processed images into binary format images. […] The Matlab program calculated the areas that were occupied by each bacterium. A longer incubation time allowed each bacterium to grow and occupy more area. The occupied areas were measured using the image processing program. 200 μl of Mueller-Hinton agar including 5×10^8 cells/ml bacterial cells and 600 μl of 2% liquid agarose at 45° C. was mixed thoroughly by a vortex generator (vortex Genie 2). The agarose-bacteria mixture was placed in the main channels of the microfluidic channel system using a syringe pump (KdScientific) at stable flow rate (2 ml/hr) to prevent bursting into the side-branched channels. After the liquid agarose was solidified at room temperature to immobilize the bacteria in the main channels, the MHA medium containing the antibiotic was injected into the side-branched channels using the syringe pump at a rate of 10 μl/hr to diffuse into the agarose-bacteria mixture. Bacterial growth was monitored by using a microscope (40×) and a CCD camera. Images of bacterial growth were taken every hour and were analyzed by using the image processing program. […] The obtained MIC values were verified by the conventional method (microdilution method) and compared with the MIC data of the CLSI. […] The images of the left group are RGB images before processing, and the images of the right group are images after processing for clear observation. After image processing, the bacteria that occupied the area were measured and plotted on the graph for different concentrations of gentamicin according to the incubation time. […] The MIC values were in the MIC ranges of the CLSI data.
# [2] = system: Staphylococcus aureus ATCC 29213; assay: as above; type: cell-based; conditions: S. aureus ATCC 29213, RAST method in MAC; for MIC: Staphylococcus aureus, ATCC29213
# Method: as §1
# P. aeruginosa ATCC 27853 = conditions: CLSI range; cited from earlier work
# E. coli ATCC 25922 = conditions: CLSI range; cited from earlier work
# [3] = system: Escherichia coli ATCC 25922; assay: Rapid antibiotic susceptibility test (RAST) in microfluidic agarose channel (MAC), MIC by single-cell time-lapse imaging; type: cell-based; conditions: E. coli ATCC 25922, RAST method in MAC; for MIC: Escherichia coli, ATCC25922
# Method: Radial microfluidic channels with six branches were formed using soft-lithography. First, SU8 mold (2015 SU8, Microchem) was fabricated by employing photolithography. Polydimethylsiloxane (PDMS, Dow Corning) was mixed with a curing agent (10:1, w/w) and poured into the SU8. After baking at 150° C. for 10 min, the PDMS was peeled off and attached to the PDMS-coated slide glass by O2 plasma treatment to obtain a radial microfluidic channel chip capable of testing antibiotics having five concentrations and a control with no antibiotic. There were six main channels that carried one side-branched channel each. […] A mixture of agarose and bacteria was allowed to flow in the main channels, and the bioactive agents were allowed to flow in the respective side-branched channels. In the middle of each main channel, there were anchors in the form of micro-sized posts for forming an interface between the agarose and each of the bioactive agents. The posts blocked the agarose from flowing into the side-branched channel. The sizes of the posts and the pitches between the posts were determined by mathematical calculations. For appropriate hydrophobicity to occur in the channel, the channel was prepared one day before experiment to increase the surface tension after O2 plasma treatment. Agarose is solidified at a temperature lower than 36° C. The cultured bacteria were mixed with 2% agarose (1:3, v/v) at 45° C. and immediately injected into the microfluidic channels. The agarose-bacteria mixture was solidified at 25° C. for 1 min. The obtained microfluidic agarose channel (MAC) chip was placed on a hot plate and incubated at 37° C. To provide nutrients, liquid CAMHB medium was supplied through the side-branched channels. The growth of the bacteria was monitored using a microscope. Bacterial growth was not inhibited and could be clearly monitored in the MAC system. Bacterial cell images were taken with a CCD camera; the images were then processed to determine the MIC values of the antibiotics. The image data were transformed into digital data using an image processing program, which is coded in Matlab. For the calculations, RGB images were transformed into grey formatted images. The background data were eliminated to obtain sharp data without noise. Then, the contrast was enhanced to change the processed images into binary format images. […] The Matlab program calculated the areas that were occupied by each bacterium. A longer incubation time allowed each bacterium to grow and occupy more area. The occupied areas were measured using the image processing program. […] Bacterial growth was monitored by using a microscope (40×) and a CCD camera. Images of bacterial growth were taken every hour and were analyzed by using the image processing program. […]
# [4] = system: P. aeruginosa ATCC 27853 biofilm; assay: Antibiotic susceptibility of biofilms in the MAC system; type: cell-based, Pseudomonas aeruginosa; conditions: biofilm formation by 4 hr aging in the MAC system
Compound,"MIC, CLSI (S. aureus ATCC 29213) [µg/mL]",MIC [1] [µg/mL],MIC [2] [µg/mL],"MIC, CLSI (P. aeruginosa ATCC 27853) [µg/mL]","MIC, CLSI (E. coli ATCC 25922) [µg/mL]",MIC [3] [µg/mL],MIC value after biofilm formation [4] [µg/mL],"MIC, RAST [1] [µg/mL]","MIC, RAST [2] [µg/mL]","MIC, RAST [3] [µg/mL]"
NCC[C@H](O)C(=O)N[C@@H]1C[C@H](N)[C@@H](O[C@H]2O[C@H](CN)[C@@H](O)[C@H](O)[C@H]2O)[C@H](O)[C@H]1O[C@H]1O[C@H](CO)[C@@H](O)[C@H](N)[C@H]1O [Amikacin],1 to 4,4,4,1 to 4,0.5 to 4,4,–,–,–,–
CCn1cc(C(=O)O)c(=O)c2cc(F)c(N3CCNCC3)cc21 [Norfloxacin],0.5 to 2,2,0.5,1 to 4,0.03 to 0.12,0.03,32,–,–,–
CN(C)[C@@H]1C(O)=C(C(N)=O)C(=O)[C@@]2(O)C(O)=C3C(=O)c4c(O)cccc4[C@@](C)(O)[C@H]3C[C@@H]12 [Tetracycline],–,32,0.5,–,–,1,–,–,–,–
gentamicin [Geninmycin],0.12 to 1,–,–,0.5 to 2,0.25 to 1,–,–,2,1,1
